SMILES strings stand for the structures. Where a name gives a salt, the structure may show the parent alone.

Common to all, as to format: cell-based
One assay addresses T1, human S1PR3 (Homo sapiens, UniProt Q99500).
T1 construct: host or cells: CHO-K1
Description: Intracellular Ca2+ release (FLIPR) agonist potency, S1P3. The note with it: recombinant CHO-K1 cells expressing human S1PR3, aequorin, Gq/i5; Calcium 5 FLIPR; read-out: S1P3 EC50. The procedure: Agonistic activity was measured using the method described below.
Intracellular Ca^2+ Release
Agonist potency and intrinsic activity was assessed by measurement of intracellular Ca^2+ release. Recombinant CHO-K1 cells (Euroscreen, Brussels, Belgium) expressing human S1PR5, S1PR1, S1PR3 or S1PR4 receptors, aequorin, and GTP binding protein Gq/i5 were cultured using a medium containing nutrient mixture F-12 Ham (Sigma-Aldrich) with 10% FBS, and 100 μg/mL gentamicin and equilibrated at 5% CO2.
Phospho-fingolimod was used as positive control. Antagonists were pre-incubated for 10 min with cells before addition of the agonist (phospho-fingolimod at EC80). Measurements were performed using a fluorometric imaging plate reader FLIPR®tetra (Molecular Devices). Agonist at the human S1P receptors were characterized by deducing EC50 (potency) values from a nonlinear fit to the measured fluorescence raw data after normalization to the reference agonist (phospho-fingolimod) curve.

The target in a further assay is T2, human S1PR4 (Homo sapiens, UniProt O95977).
T2 construct: host or cells: CHO-K1
T2 sequence (O95977 1-384): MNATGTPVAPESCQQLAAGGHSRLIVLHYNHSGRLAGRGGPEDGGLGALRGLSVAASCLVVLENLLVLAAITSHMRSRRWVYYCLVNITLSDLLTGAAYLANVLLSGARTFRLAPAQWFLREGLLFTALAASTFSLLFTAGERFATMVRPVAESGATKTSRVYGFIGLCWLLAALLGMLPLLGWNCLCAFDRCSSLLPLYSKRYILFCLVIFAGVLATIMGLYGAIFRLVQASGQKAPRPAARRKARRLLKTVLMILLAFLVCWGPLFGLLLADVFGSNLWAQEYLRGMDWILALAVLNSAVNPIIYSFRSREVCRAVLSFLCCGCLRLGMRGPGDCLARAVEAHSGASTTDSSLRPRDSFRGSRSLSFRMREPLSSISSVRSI
Briefly: Intracellular Ca2+ release (FLIPR) agonist potency, S1P4. Conditions: recombinant CHO-K1 cells expressing human S1PR4, aequorin, Gq/i5; Calcium 5 FLIPR; read-out: S1P4 EC50. A digest of the protocol:
(§1)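 CHO-K1/receptor/aequorin/Gq/i5 cells, F-12 Ham + 10% FBS. Ca2+ release read on FLIPR Tetra. EC50 by nonlinear fit after normalizing to phospho-fingolimod reference curve.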

The next assay has as its target T3, human S1PR1 (Homo sapiens, UniProt P21453).
T3 construct: host or cells: CHO-K1
Description: Intracellular Ca2+ release (FLIPR) agonist potency, S1P1. The note with it: recombinant CHO-K1 cells expressing human S1PR1, aequorin, Gq/i5; Calcium 5 FLIPR; read-out: S1P1 EC50. A digest of the protocol:
as §1

In the next assay the target is T4, human S1PR5 (Homo sapiens, UniProt Q9H228).
T4 construct: host or cells: CHO-K1
T4 sequence (Q9H228 whole entry): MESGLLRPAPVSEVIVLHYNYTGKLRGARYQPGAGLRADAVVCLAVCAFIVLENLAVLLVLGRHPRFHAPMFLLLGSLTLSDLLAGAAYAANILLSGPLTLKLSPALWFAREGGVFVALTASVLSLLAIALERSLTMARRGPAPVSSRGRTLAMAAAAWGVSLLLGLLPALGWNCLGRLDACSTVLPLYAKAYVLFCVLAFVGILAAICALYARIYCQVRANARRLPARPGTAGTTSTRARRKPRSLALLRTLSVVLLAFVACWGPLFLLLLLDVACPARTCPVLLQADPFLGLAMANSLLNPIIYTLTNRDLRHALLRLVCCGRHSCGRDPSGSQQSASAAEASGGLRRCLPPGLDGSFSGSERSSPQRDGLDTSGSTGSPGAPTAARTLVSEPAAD
Description: Intracellular Ca2+ release (FLIPR) agonist potency, S1P5. Conditions: recombinant CHO-K1 cells expressing human S1PR5, aequorin, Gq/i5; Calcium 5 FLIPR; read-out: S1P5 EC50 range. A digest of the protocol:
as §1

T3 sequence (P21453 whole entry): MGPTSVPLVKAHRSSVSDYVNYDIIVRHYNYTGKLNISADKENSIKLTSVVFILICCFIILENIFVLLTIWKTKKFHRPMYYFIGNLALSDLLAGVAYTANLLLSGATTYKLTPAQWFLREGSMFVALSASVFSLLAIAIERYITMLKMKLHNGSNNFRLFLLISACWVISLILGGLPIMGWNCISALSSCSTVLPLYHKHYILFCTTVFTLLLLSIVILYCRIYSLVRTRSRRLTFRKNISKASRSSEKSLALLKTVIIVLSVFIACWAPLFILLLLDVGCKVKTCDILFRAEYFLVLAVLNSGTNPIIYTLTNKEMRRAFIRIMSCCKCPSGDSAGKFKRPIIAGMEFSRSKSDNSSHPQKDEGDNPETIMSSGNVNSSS
T1 sequence (Q99500 whole entry): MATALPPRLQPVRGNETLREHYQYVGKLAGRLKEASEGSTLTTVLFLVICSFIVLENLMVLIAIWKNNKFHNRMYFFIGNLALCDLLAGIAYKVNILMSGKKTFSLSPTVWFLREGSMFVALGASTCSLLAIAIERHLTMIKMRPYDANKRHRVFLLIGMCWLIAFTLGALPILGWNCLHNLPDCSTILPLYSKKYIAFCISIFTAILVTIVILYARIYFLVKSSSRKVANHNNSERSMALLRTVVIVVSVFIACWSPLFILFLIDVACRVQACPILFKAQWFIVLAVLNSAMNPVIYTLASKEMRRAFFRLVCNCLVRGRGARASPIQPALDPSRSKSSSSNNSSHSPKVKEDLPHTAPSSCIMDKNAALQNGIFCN

The EC50 is the concentration giving half of the maximal effect. In the case of `O=C(O)C1CN(C2COc3cc(OCc4c(F)cccc4C(F)(F)F)ccc3C2)C1` (stereo not shown) [Compound 66, 1-(7-((2-fluoro-6-(trifluoromethyl)benzyl)oxy)chroman-3-yl)azetidine-3-carboxylic acid], the concentration for a half-maximal effect (EC50) on human S1PR3 was > 1 µM; on human S1PR4 it was < 1 µM; at human S1PR1 it was > 1 µM; on human S1PR5, 0.01 to 0.1 µM.

As to `O=C(O)C1CN(C2COc3cc(OCc4c(F)cccc4C4CC4)ccc3C2)C1` (stereo not shown) [Compound 67, 1-(7-((2-cyclopropyl-6-fluorobenzyl)oxy)chroman-3-yl)azetidine-3-carboxylic acid], the EC50 on human S1PR3 was > 1 µM; on human S1PR4, < 1 µM; on human S1PR1, > 1 µM; on human S1PR5, < 0.01 µM.

Turning to `O=C(O)C1CN(C2COc3cc(OCc4ccc(Cl)cc4Cl)ccc3C2)C1` (stereo not shown) [Compound 68, 1-(7-((2,4-dichlorobenzyl)oxy)chroman-3-yl)azetidine-3-carboxylic acid], the EC50 on human S1PR3 was > 1 µM; on human S1PR4 it was > 1 µM; on human S1PR1, > 1 µM; at human S1PR5 it was 0.1 to 1 µM.

As for `O=C(O)C1CN(C2COc3cc(OCCc4c(Cl)cccc4Cl)ccc3C2)C1` (stereo not shown) [Compound 69, 1-(7-(2,6-dichlorophenethoxy)chroman-3-yl)azetidine-3-carboxylic acid], the EC50 was > 1 µM at human S1PR3, > 1 µM at human S1PR4, > 1 µM on human S1PR1 and 0.01 to 0.1 µM at human S1PR5.

Take `O=C(O)C1CCN(CC2OCCc3cc(OCc4c(Cl)cccc4Cl)ccc32)CC1` (stereo not shown) [Compound 70, 1-((6-((2,6-dichlorobenzyl)oxy)isochroman-1-yl)methyl)piperidine-4-carboxylic acid]: the EC50 at human S1PR3 was > 1 µM; at human S1PR4, < 1 µM; on human S1PR1, > 1 µM; on human S1PR5 it was 0.01 to 0.1 µM.

Take `CCc1cccc(Cl)c1COc1ccc2c(c1)CCC(NCC(=O)O)C2` (stereo not shown) [Compound 73, 2-((6-((2-chloro-6-ethylbenzyl)oxy)-1,2,3,4-tetrahydronaphthalen-2-yl)amino)acetic acid]: the EC50 was > 1 µM at human S1PR3, < 1 µM on human S1PR4, < 1 µM at human S1PR1 and < 0.01 µM on human S1PR5.

For the compound `O=C(O)C1CCN(C2CCc3cc(OCc4c(Cl)cccc4Cl)ccc3C2)C1` (stereo not shown) [Compound 74, 1-(6-((2,6-dichlorobenzyl)oxy)-1,2,3,4-tetrahydronaphthalen-2-yl)pyrrolidine-3-carboxylic acid], the EC50 on human S1PR3 was > 1 µM; on human S1PR4, < 1 µM; on human S1PR1, > 1 µM; on human S1PR5 it was < 0.01 µM.

Take `O=C(O)CNC1CCc2cc(OCc3c(Cl)cccc3Cl)ccc2C1` (stereo not shown) [Compound 75, 2-((6-((2,6-dichlorobenzyl)oxy)-1,2,3,4-tetrahydronaphthalen-2-yl)amino)acetic acid]: the EC50 was > 1 µM at human S1PR3, < 1 µM on human S1PR4, > 1 µM on human S1PR1 and < 0.01 µM on human S1PR5.

On to `O=C(O)[C@H]1C[C@@H](NC2CCc3cc(OCc4c(Cl)cccc4Cl)ccc3C2)C1` (stereo partly shown) [Compound 77, (1 s,3s)-3-((6-((2,6-dichlorobenzyl)oxy)-1,2,3,4-tetrahydronaphthalen-2-yl)amino)cyclobutanecarboxylic acid], for which the EC50 at human S1PR3 was > 1 µM; at human S1PR4, < 1 µM; on human S1PR1, < 1 µM; at human S1PR5 it was < 0.01 µM.

As to `O=C(O)CC1CN(C2CCc3cc(OCc4c(Cl)cccc4Cl)ccc3C2)C1` (stereo not shown) [Compound 78, 2-(1-(6-((2,6-dichlorobenzyl)oxy)-1,2,3,4-tetrahydronaphthalen-2-yl)azetidin-3-yl)acetic acid], the EC50 on human S1PR3 was > 1 µM; at human S1PR4 it was < 1 µM; on human S1PR1, > 1 µM; on human S1PR5, < 0.01 µM.

As to `O=C(O)[C@H]1C[C@H](NC2CCc3cc(OCc4c(Cl)cccc4Cl)ccc3C2)C1` (stereo partly shown) [Compound 79, (1r,3r)-3-((6-((2,6-dichlorobenzyl)oxy)-1,2,3,4-tetrahydronaphthalen-2-yl)amino)cyclobutanecarboxylic acid], the EC50 is > 1 µM on human S1PR3, < 1 µM at human S1PR4, < 1 µM at human S1PR1 and < 0.01 µM on human S1PR5.

`O=C(O)CC1CCN(C2CCc3cc(OCc4c(Cl)cccc4Cl)ccc3C2)C1` (stereo not shown) [Compound 80, 2-(1-(6-((2,6-dichlorobenzyl)oxy)-1,2,3,4-tetrahydronaphthalen-2-yl)pyrrolidin-3-yl)acetic acid]: the concentration giving a half-maximal response (EC50) on human S1PR3 was > 1 µM; on human S1PR4 it was < 1 µM; at human S1PR1 it was > 1 µM; at human S1PR5, 0.01 to 0.1 µM.

As to `O=C(O)C1CN(C2COc3cc(CCc4cc(F)cc(F)c4)ccc3C2)C1` (stereo not shown) [Compound 81, 1-(7-(3,5-difluorophenethyl)chroman-3-yl)azetidine-3-carboxylic acid], the EC50 at human S1PR3 is > 1 µM; on human S1PR4 it was > 1 µM; at human S1PR1, > 1 µM; on human S1PR5 it was 1 to 10 µM.

On to `CCc1cccc(Cl)c1COc1ccc2c(c1)CCC1C2OCCN1CCC(=O)O` (stereo not shown) [Compound 82, 3-(8-((2-chloro-6-ethylbenzyl)oxy)-5,6-dihydro-2H-naphtho[1,2-b][1,4]oxazin-4(3H,4aH,10bH)-yl)propanoic acid hydrochloride], for which the concentration giving a half-maximal response (EC50) was > 1 µM on human S1PR3, < 1 µM on human S1PR4, < 1 µM at human S1PR1 and < 0.01 µM on human S1PR5.

Turning to `O=C(O)COC1CCc2cc(OCc3c(F)ccc(Cl)c3F)ccc2C1` (stereo not shown) [Compound 152, 2-[6-[(3-chloro-2,6-difluoro-phenyl)methoxy]tetralin-2-yl]oxyacetic acid], the EC50 at human S1PR3 was > 1 µM; on human S1PR4, > 1 µM; on human S1PR1, > 1 µM; on human S1PR5, < 0.01 µM.

`O=C(O)COC1CCc2cc(OCc3cc(OC(F)(F)F)ccc3F)ccc2C1` (stereo not shown) [Compound 161, 2-[6-[[2-fluoro-5-(trifluoromethoxy)phenyl]methoxy]tetralin-2-yl]oxyacetic acid]: the EC50 is > 1 µM on human S1PR3, > 1 µM on human S1PR4, > 1 µM at human S1PR1 and 0.01 to 0.1 µM at human S1PR5.

As to `O=C(O)COC1CCc2cc(OCc3c(Cl)cccc3C(F)(F)F)ccc2C1` (stereo not shown) [Compound 167, 2-[6-[[2-chloro-6-(trifluoromethyl)phenyl]methoxy]tetralin-2-yl]oxyacetic acid], the EC50 at human S1PR3 was > 1 µM; on human S1PR4, > 1 µM; on human S1PR1 it was > 1 µM; on human S1PR5 it was < 0.01 µM.

With `O=C(O)COC1CCc2cc(OCc3cc(F)ccc3C(F)(F)F)ccc2C1` (stereo not shown) [Compound 168, 2-[6-[[5-fluoro-2-(trifluoromethyl)phenyl]methoxy]tetralin-2-yl]oxyacetic acid], the EC50 on human S1PR3 was > 1 µM; at human S1PR4 it was < 1 µM; at human S1PR1, > 1 µM; at human S1PR5 it was < 0.01 µM.

Turning to `Cc1cccc(C)c1COc1ccc2c(c1)CCC(OCC(=O)O)C2` (stereo not shown) [Compound 175, 2-[6-[(2,6-dimethylphenyl)methoxy]tetralin-2-yl]oxyacetic acid], the EC50 at human S1PR3 was > 1 µM; at human S1PR4 it was > 1 µM; at human S1PR1 it was > 1 µM; on human S1PR5, 0.01 to 0.1 µM.

For the compound `O=C(O)COC1CCc2cc(OCc3c(Cl)cccc3Cl)ccc2C1` (stereo not shown) [Compound 210, 2-[6-[(2,6-dichlorophenyl)methoxy]tetralin-2-yl]oxyacetic acid], the EC50 on human S1PR3 was > 1 µM; at human S1PR4 it was > 1 µM; at human S1PR1 it was > 1 µM; on human S1PR5, 0.1 to 1 µM.

On to `CC(C)(C)c1ccc(COc2ccc3c(c2)CCC(OCC(=O)O)C3)cc1` (stereo not shown) [Compound 211, 2-[6-[(4-tert-butylphenyl)methoxy]tetralin-2-yl]oxyacetic acid], for which the EC50 is > 1 µM on human S1PR3, > 1 µM at human S1PR4, > 1 µM at human S1PR1 and 0.01 to 0.1 µM at human S1PR5.

On to `O=C(O)COC1CCc2cc(OCc3cccc(C(F)(F)F)c3)ccc2C1` (stereo not shown) [Compound 213, 2-[6-[[3-(trifluoromethyl)phenyl]methoxy]tetralin-2-yl]oxyacetic acid], for which the EC50 was > 1 µM on human S1PR3, < 1 µM on human S1PR4, > 1 µM on human S1PR1 and 0.01 to 0.1 µM at human S1PR5.

The values above are taken from patent publication US10280159B2 (AbbVie Deutschland GmbH & Co. KG, priority 2015, dated 2019).
